Test results: patent publication US11117905B2, “Bisaryl heterocycles as NRF2 activators” (GLAXOSMITHKLINE INTELLECTUAL PROPERTY DEVELOPMENT LIMITED, priority 2016, dated 2021)

Test system: NQO1 specific enzyme activity in BEAS-2B cells (marker for NRF2 activation)
Test: BEAS-2B NQO1 MTT Assay
Type: cell-based
Details: Homo sapiens, BEAS-2B, 48 h, NQO1 specific activity induction, 48 hours with compound
Outline: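 BEAS-2B cells were plated at 250,000 cells/mL and treated after overnight culture with compound for 48 h at 37° C, 5% CO2. NQO1 activity in crude lysates was read kinetically as MTT reduction at 570 nm over 30 min. pEC50 comes from ΔOD/min versus log concentration with a 3-parameter fit.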

`CCn1nnc2c(C)c([C@H](c3nc(CN4C[C@@H](C)Cc5cc(C(F)(F)F)ccc5S4(=O)=O)c(C)s3)C(C)(C)C(=O)Nc3cccnc3)ccc21` [Example 45, (S)-3-(1-Ethyl-4-methyl-1H-benzo[d][1,2,3]triazol-5-yl)-2,2-dimethyl-3-(5-methyl-4-(((S)-4-methyl-1,1-dioxido-7-(trifluoromethyl)-4,5-dihydrobenzo[f][1,2]thiazepin-2(3H)-yl)methyl)thiazol-2-yl)-N-(pyridin-3-yl)propanamide] gave an EC50 of 10 to 100 nM.
Molecule `CC[C@@H]1CN(Cc2cc([C@H](CC(=O)O)c3ccc4c(nnn4CC)c3C)sc2C)S(=O)(=O)c2cccnc2O1` [Example 46, (R)-3-(4-(((R)-4-Ethyl-1,1-dioxido-3,4-dihydro-2H-pyrido[2,3-b][1,4,5]oxathiazepin-2-yl)methyl)-5-methylthiophen-2-yl)-3-(1-ethyl-4-methyl-1H-benzo[d][1,2,3]triazol-5-yl)propanoic Acid] has an EC50 of 10 to 100 nM.
In the case of `CC[C@@H]1CN(Cc2cc([C@H](CC(=O)O)c3ccc4c(nnn4CC)c3C)sc2C)S(=O)(=O)c2cnccc2O1` [Example 47, (R)-3-(4-(((R)-4-Ethyl-1,1-dioxido-3,4-dihydro-2H-pyrido[4,3-b][1,4,5]oxathiazepin-2-yl)methyl)-5-methylthiophen-2-yl)-3-(1-ethyl-4-methyl-1H-benzo[d][1,2,3]triazol-5-yl)propanoic Acid], the EC50 is reported as 10 to 100 nM.
Work on `CC[C@H]1Cc2ccc(C(F)(F)F)cc2S(=O)(=O)N(Cc2nc([C@@H](c3ccc4c(nnn4CC)c3C)C(C)(C)C(=O)Nc3cccnc3)sc2C)C1` [Example 48, (S)-3-(4-(((S)-4-Ethyl-1,1-dioxido-8-(trifluoromethyl)-4,5-dihydrobenzo[f][1,2]thiazepin-2(3H)-yl)methyl)-5-methylthiazol-2-yl)-3-(1-ethyl-4-methyl-1H-benzo[d][1,2,3]triazol-5-yl)-2,2-dimethyl-N-(pyridin-3-yl)propanamide] yielded an EC50 of 10 to 100 nM.
With `CC[C@H]1Cc2ccc(C(F)(F)F)cc2S(=O)(=O)N(Cc2nc([C@@H](c3ccc4c(nnn4CC)c3C)C(C)(C)C(=O)O)sc2C)C1` [Example 49, (S)-3-(4-(((S)-4-Ethyl-1,1-dioxido-8-(trifluoromethyl)-4,5-dihydrobenzo[f][1,2]thiazepin-2(3H)-yl)methyl)-5-methylthiazol-2-yl)-3-(1-ethyl-4-methyl-1H-benzo[d][1,2,3]triazol-5-yl)-2,2-dimethylpropanoic Acid] the EC50 was < 1 nM.
In the case of `CCn1nnc2c(C)c([C@H](c3cc(CN4C[C@@H](C)Cc5ccc(C(F)(F)F)cc5S4(=O)=O)n(C)n3)C(C)(C)C(=O)O)ccc21` [Example 50, (S)-3-(1-Ethyl-4-methyl-1H-benzo[d][1,2,3]triazol-5-yl)-2,2-dimethyl-3-(1-methyl-5-(((S)-4-methyl-1,1-dioxido-8-(trifluoromethyl)-4,5-dihydrobenzo[f][1,2]thiazepin-2(3H)-yl)methyl)-1H-pyrazol-3-yl)propanoic Acid], the EC50 is reported as 1 to 10 nM.
In the case of `CC[C@@H]1CN(Cc2cc([C@@H](c3ccc4c(nnn4CC)c3C)C(C)(C)C(=O)Nc3cccnc3)sc2C)S(=O)(=O)c2ccccc2O1` [Example 51, (S)-3-(4-(((R)-4-Ethyl-1,1-dioxido-3,4-dihydro-2H-benzo[b][1,4,5]oxathiazepin-2-yl)methyl)-5-methylthiophen-2-yl)-3-(1-ethyl-4-methyl-1H-benzo[d][1,2,3]triazol-5-yl)-2,2-dimethyl-N-(pyridin-3-yl)propanamide], the EC50 is reported as 1 to 10 nM.
`CCn1nnc2c(C)c([C@H](c3cc(CN4C[C@@H](C)Cc5ccccc5S4(=O)=O)c(C)s3)C(C)(C)C(=O)Nc3cccnc3)ccc21` [Example 52, (S)-3-(1-Ethyl-4-methyl-1H-benzo[d][1,2,3]triazol-5-yl)-2,2-dimethyl-3-(5-methyl-4-(((S)-4-methyl-1,1-dioxido-4,5-dihydrobenzo[f][1,2]thiazepin-2(3H)-yl)methyl)thiophen-2-yl)-N-(pyridin-3-yl)propanamide] gave an EC50 of 1 to 10 nM.
`CC[C@@H]1CN(Cc2cc([C@@H](c3ccc4c(nnn4CC)c3F)C(C)(C)C(=O)O)sc2Cl)S(=O)(=O)c2ccccc2O1` [Example 53, (R)-3-(5-Chloro-4-(((R)-4-ethyl-1,1-dioxido-3,4-dihydro-2H-benzo[b][1,4,5]oxathiazepin-2-yl)methyl)thiophen-2-yl)-3-(1-ethyl-4-fluoro-1H-benzo[d][1,2,3]triazol-5-yl)-2,2-dimethylpropanoic Acid] was tested, and the EC50 was < 1 nM.
For `CC[C@@H]1CN(Cc2cc([C@@H](c3ccc4c(nnn4CC)c3C)C(C)(C)C(=O)O)sc2Cl)S(=O)(=O)c2cccnc2O1` [Example 54, (S)-3-(5-Chloro-4-(((R)-4-ethyl-1,1-dioxido-3,4-dihydro-2H-pyrido[2,3-b][1,4,5]oxathiazepin-2-yl)methyl)thiophen-2-yl)-3-(1-ethyl-4-methyl-1H-benzo[d][1,2,3]triazol-5-yl)-2,2-dimethylpropanoic Acid], the EC50 was < 1 nM.
`CC[C@H]1Cc2ccc(C(F)(F)F)cc2S(=O)(=O)N(Cc2cc([C@@H](c3ccc4c(nnn4CC)c3C)C(C)(C)C(=O)O)sc2C)C1` [Example 55, (S)-3-(4-(((S)-4-Ethyl-1,1-dioxido-8-(trifluoromethyl)-4,5-dihydrobenzo[f][1,2]thiazepin-2(3H)-yl)methyl)-5-methylthiophen-2-yl)-3-(1-ethyl-4-methyl-1H-benzo[d][1,2,3]triazol-5-yl)-2,2-dimethylpropanoic Acid] was tested, and the EC50 was < 1 nM.
For `CC[C@@H]1CN(Cc2cc([C@@H](c3ccc4c(nnn4CC)c3C)C(C)(C)C(=O)O)sc2Cl)S(=O)(=O)c2cnccc2O1` [Example 56, (S)-3-(5-Chloro-4-(((R)-4-ethyl-1,1-dioxido-3,4-dihydro-2H-pyrido[4,3-b][1,4,5]oxathiazepin-2-yl)methyl)thiophen-2-yl)-3-(1-ethyl-4-methyl-1H-benzo[d][1,2,3]triazol-5-yl)-2,2-dimethylpropanoic Acid], the EC50 was < 1 nM.
For `CCn1nnc2c(F)c([C@H](c3cc(CN4C[C@@H](C)Cc5ccc(C(F)(F)F)cc5S4(=O)=O)c(Cl)s3)C(C)(C)C(=O)O)ccc21` [Example 57, (R)-3-(5-Chloro-4-(((S)-4-methyl-1,1-dioxido-8-(trifluoromethyl)-4,5-dihydrobenzo[f][1,2]thiazepin-2(3H)-yl)methyl)thiophen-2-yl)-3-(1-ethyl-4-fluoro-1H-benzo[d][1,2,3]triazol-5-yl)-2,2-dimethylpropanoic Acid], the EC50 was < 1 nM.
`CC[C@@H]1CN(Cc2cc([C@H](CCc3cn(CC)nn3)C(C)(C)C(=O)O)sc2C)S(=O)(=O)c2cccnc2O1` [Example 58, (R)-3-(4-(((R)-4-Ethyl-1,1-dioxido-3,4-dihydro-2H-pyrido[2,3-b][1,4,5]oxathiazepin-2-yl)methyl)-5-methylthiophen-2-yl)-5-(1-ethyl-1H-1,2,3-triazol-4-yl)-2,2-dimethylpentanoic Acid] gave an EC50 of 1 to 10 nM.
`CC[C@@H]1CN(Cc2cc([C@@H](CCc3cn(CC)nn3)C(C)(C)C(=O)O)sc2C)S(=O)(=O)c2cccnc2O1` [Example 59, (S)-3-(4-(((R)-4-Ethyl-1,1-dioxido-3,4-dihydro-2H-pyrido[2,3-b][1,4,5]oxathiazepin-2-yl)methyl)-5-methylthiophen-2-yl)-5-(1-ethyl-1H-1,2,3-triazol-4-yl)-2,2-dimethylpentanoic Acid] showed an EC50 of 1 to 10 nM.
